Reference: ChEMBL document CHEMBL6092167, “Phosphorylation as an Effective Tool to Improve Stability and Reduce Toxicity of Antimicrobial Peptides” (J Med Chem, 2024)
≈ marks a conversion by molar mass, not a printed value. Calls of active or inactive are those of the source. No cut-off for these calls is given here. Non-standard residues stand in square brackets, D forms with d. Residues, ends and D or L forms follow the SMILES beside them. Bip = N[C@@H](Cc1ccc(-c2ccccc2)cc1)C(=O)O; pY = N[C@@H](Cc1ccc(OP(=O)(O)O)cc1)C(=O)O

Legend:
Cell membrane [1] = assay: Induction of cytoplasmic membrane rupture in Staphylococcus aureus ATCC 25923 assessed as adhesion at 2 times MIC incubated for 30 to 120 mins by SEM analysis; assay type: subcellular; conditions: time 30-120 min
Escherichia coli [2] = assay: Inhibition of biofilm formation in Escherichia coli ATCC 25922 incubated for 24 hrs by crystal violet staining based assay; assay type: functional, organism-based
Klebsiella pneumoniae [3] = assay: Synergistic antibacterial activity against Klebsiella pneumoniae ATCC 700603 assessed as fractional inhibitory concentration index at 1/4 to 4 times MIC incubated for 18 to 24 hrs in presence of polymyxin B by checkerboard assay; assay type: functional; conditions: time 18-24 hrs
Escherichia coli [4] = assay: Antibacterial activity against Escherichia coli 850 incubated for 18 to 24 hrs by broth microdilution method; assay type: functional; conditions: time 18-24 hrs
Pseudomonas aeruginosa [5] = assay: Antibacterial activity against Pseudomonas aeruginosa 119 incubated for 18 to 24 hrs by broth microdilution method; assay type: functional; conditions: time 18-24 hrs
[6] = Stability in Kunming mouse serum assessed as half life measured upto 24 hrs by RP-HPLC method; assay type: ADME, cell-free
Escherichia coli [7] = assay: Antibiofilm activity against Escherichia coli ATCC 25922 assessed as eradication of preformed biofilms at 2 to 4 times MIC incubated for 24 hrs by crystal violet staining based assay; assay type: functional, organism-based
Klebsiella pneumoniae [8] = assay: Antibiofilm activity against Klebsiella pneumoniae ATCC 700603 assessed as eradication of preformed biofilms at 2 to 4 times MIC incubated for 24 hrs by crystal violet staining based assay; assay type: functional, organism-based
Klebsiella pneumoniae [9] = assay: Additive antibacterial activity against Klebsiella pneumoniae ATCC 700603 assessed as fractional inhibitory concentration index at 1/4 to 4 times MIC incubated for 18 to 24 hrs in presence of kanamycin by checkerboard assay; assay type: functional; conditions: time 18-24 hrs
Staphylococcus aureus [10] = assay: Antibacterial activity against Staphylococcus aureus 794 incubated for 18 to 24 hrs by broth microdilution method; assay type: functional; conditions: time 18-24 hrs
Pseudomonas aeruginosa [11] = assay: Antibiofilm activity against Pseudomonas aeruginosa ATCC 27853 assessed as eradication of preformed biofilms incubated for 24 hrs by crystal violet staining based assay; assay type: functional, organism-based
[12] = Hemolytic activity in mouse erythrocyte incubated for 1 hr by microplate reader assay; assay type: toxicity, cell-based
Escherichia coli [13] = assay: Antibiofilm activity against Escherichia coli ATCC 25922 assessed as eradication of preformed biofilms incubated for 24 hrs by crystal violet staining based assay; assay type: functional, organism-based
Klebsiella pneumoniae [14] = assay: Durg resistance development in Klebsiella pneumoniae ATCC 700603 measured after 20 passage; assay type: functional, organism-based
Klebsiella pneumoniae [15] = assay: Additive antibacterial activity against Klebsiella pneumoniae ATCC 700603 assessed as fractional inhibitory concentration index at 1/4 to 4 times MIC incubated for 18 to 24 hrs in presence of rifampicin by checkerboard assay; assay type: functional; conditions: time 18-24 hrs
Staphylococcus aureus [16] = assay: Antibacterial activity against methicillin resistant Staphylococcus aureus 48 incubated for 18 to 24 hrs by broth microdilution method; assay type: functional; conditions: time 18-24 hrs
Cell membrane [17] = assay: Induction of cell membrane disruption in Pseudomonas aeruginosa ATCC 27853 at 2 times MIC incubated for 2 hrs by SEM analysis; assay type: subcellular
Cell membrane [18] = assay: Induction of cytoplasmic membrane rupture in Pseudomonas aeruginosa ATCC 27853 assessed as blistering at 2 times MIC incubated for 30 to 120 mins by SEM analysis; assay type: subcellular; conditions: time 30-120 min
Acinetobacter baumannii = assay: Antibacterial activity against Acinetobacter baumannii ATCC 19606 incubated for 18 to 24 hrs by broth microdilution method; assay type: functional; conditions: time 18-24 hrs
Klebsiella pneumoniae [19] = assay: Antibacterial activity against rifampicin resistant Klebsiella pneumoniae; assay type: functional
Klebsiella pneumoniae [20] = assay: Antibiofilm activity against Klebsiella pneumoniae ATCC 700603 assessed as eradication of preformed biofilms incubated for 24 hrs by crystal violet staining based assay; assay type: functional, organism-based
Cell membrane [21] = assay: Induction of cytoplasmic membrane rupture in Pseudomonas aeruginosa ATCC 27853 assessed as leakage of cellular content at 2 times MIC incubated for 30 to 120 mins by SEM analysis; assay type: subcellular; conditions: time 30-120 min
Klebsiella pneumoniae [22] = assay: Antibacterial activity against Klebsiella pneumoniae ATCC 700603 incubated for 18 to 24 hrs by broth microdilution method; assay type: functional; conditions: time 18-24 hrs
Cell membrane [23] = assay: Induction of membrane damage in Pseudomonas aeruginosa ATCC 27853 assessed as change in membrane shape at 2 times MIC incubated for 30 to 120 mins by SEM analysis; assay type: subcellular; conditions: time 30-120 min
Klebsiella pneumoniae [24] = assay: Inhibition of kanamycin resistance in Klebsiella pneumoniae ATCC 700603 at 1:1 compound: kanamycin molar ratio measured after 20 generation; assay type: functional, organism-based
Cell membrane [25] = assay: Induction of cytoplasmic membrane rupture in Staphylococcus aureus ATCC 25923 assessed as content leakage at 2 times MIC incubated for 30 to 120 mins by SEM analysis; assay type: subcellular; conditions: time 30-120 min
Bacillus subtilis = assay: Antibacterial activity against Bacillus subtilis ATCC 23857 incubated for 18 to 24 hrs by broth microdilution method; assay type: functional; conditions: time 18-24 hrs
[26] = Toxicity in ip dosed BALB/c mouse measured after 14 days; assay type: organism-based; conditions: in vivo, time 14 day
Staphylococcus aureus [27] = assay: Antibacterial activity against methicillin resistant Staphylococcus aureus ATCC 33591 incubated for 18 to 24 hrs by broth microdilution method; assay type: functional; conditions: time 18-24 hrs
Pseudomonas aeruginosa [28] = assay: Antibiofilm activity against Pseudomonas aeruginosa ATCC 27853 assessed as eradication of preformed biofilms at 4 times MIC incubated for 24 hrs by crystal violet staining based assay; assay type: functional, organism-based
Cell membrane [29] = assay: Induction of inner membrane permeabilization in Escherichia coli ML-35 assessed as increase in […] intensity by ONPG dye based microplate reader assay; assay type: subcellular
Cell membrane [30] = assay: Induction of cytoplasmic membrane rupture in Pseudomonas aeruginosa ATCC 27853 assessed as wrinkling at 2 times MIC incubated for 30 to 120 mins by SEM analysis; assay type: subcellular; conditions: time 30-120 min
Staphylococcus aureus [31] = assay: Antibacterial activity against Staphylococcus aureus ATCC 25923 incubated for 18 to 24 hrs by broth microdilution method; assay type: functional; conditions: time 18-24 hrs
Chymotrypsin = Chymotrypsin (Homo sapiens, UniProt Q99895+P17538+P40313+Q6GPI1); assay: Stability of compound assessed as chymotrypsin (unknown origin) mediated compound degradation; assay type: ADME, protein assay
Trypsin = Trypsin (Homo sapiens, UniProt P07477+P07478+P35030); assay: Stability of compound assessed as trypsin (unknown origin) mediated compound degradation; assay type: ADME, protein assay
Cell membrane [32] = assay: Induction of cytoplasmic membrane rupture in Pseudomonas aeruginosa ATCC 27853 assessed as adhesion at 2 times MIC incubated for 30 to 120 mins by SEM analysis; assay type: subcellular; conditions: time 30-120 min
Klebsiella pneumoniae [33] = assay: Additive antibacterial activity against Klebsiella pneumoniae ATCC 700603 assessed as fractional inhibitory concentration index at 1/4 to 4 times MIC incubated for 18 to 24 hrs in presence of ciprofloxacin by checkerboard assay; assay type: functional; conditions: time 18-24 hrs
Staphylococcus aureus [34] = assay: Inhibition of biofilm formation in Staphylococcus aureus ATCC 25923 at 1 time MIC incubated for 24 hrs by crystal violet staining based assay; assay type: functional, organism-based
Klebsiella pneumoniae [35] = assay: Inhibition of rifampicin resistance in Klebsiella pneumoniae ATCC 700603 at 1:1 compound: rifampicin molar ratio measured after 20 generation; assay type: functional, organism-based
[36] = Cytotoxicity against HEK293T cells incubated for 1 hr by fluorescence based microplate reader assay; assay type: toxicity, cell-based, HEK-293T; conditions: human
Staphylococcus aureus [37] = assay: Antibiofilm activity against Staphylococcus aureus ATCC 25923 assessed as eradication of preformed biofilms incubated for 24 hrs by crystal violet staining based assay; assay type: functional, organism-based
Staphylococcus aureus [38] = assay: Antibiofilm activity against Staphylococcus aureus ATCC 25923 assessed as eradication of preformed biofilms at 2 to 4 times MIC incubated for 24 hrs by crystal violet staining based assay; assay type: functional, organism-based
Klebsiella pneumoniae [39] = assay: Antibacterial activity against kanamycin resistant Klebsiella pneumoniae; assay type: functional

**Q.** Which Activity (Cell membrane [1]) does the source give for `CC(C)C[C@H](NC(=O)[C@H](CC(C)C)NC(=O)[C@H](Cc1ccc(OP(=O)(O)O)cc1)NC(=O)[C@H](CCCCN)NC(=O)[C@H](CC(C)C)NC(=O)[C@H](CCCNC(=N)N)NC(=O)[C@H](CCCCN)NC(=O)[C@H](Cc1ccc(-c2ccccc2)cc1)NC(=O)[C@H](CC(C)C)NC(=O)CN)C(N)=O` (H-GL[Bip]KRLK[pY]LL-NH2) here?
**A.** Active

**Q.** And the inhibition (Escherichia coli [2])?
**A.** Dose-dependent-effect; Inhibition Comparable To Polymyxin B

**Q.** What about the “fractional inhibitory concentration index (FICI)” value (Klebsiella pneumoniae [3]) of the same compound?
**A.** 0.5

**Q.** And the MIC (Escherichia coli [4])?
**A.** 8 µM (≈ 11.2 µg/mL)

**Q.** And the MIC (Pseudomonas aeruginosa [5])?
**A.** 15 µM (≈ 21.1 µg/mL)

**Q.** And the half-life [6]?
**A.** 8.51 h

**Q.** What about the Activity (Escherichia coli [7]) of the same compound?
**A.** Active

**Q.** What about the Activity (Klebsiella pneumoniae [8]) of the same compound?
**A.** Active

**Q.** What about the “fractional inhibitory concentration index (FICI)” value (Klebsiella pneumoniae [9]) of the same compound?
**A.** 0.563

**Q.** What about the MIC (Staphylococcus aureus [10]) of the same compound?
**A.** 8 µM (≈ 11.2 µg/mL)

**Q.** And the Activity (Pseudomonas aeruginosa [11])?
**A.** Dose-dependent-effect; Superior Activity Compared To Polymyxin B And Vancomycin

**Q.** And the MHC [12]?
**A.** > 256 µM

**Q.** What about the Activity (Escherichia coli [13]) of the same compound?
**A.** Dose-dependent-effect; Superior Activity Compared To Polymyxin B And Vancomycin

**Q.** And the Activity (Klebsiella pneumoniae [14])?
**A.** inactive

**Q.** And the “fractional inhibitory concentration index (FICI)” value (Klebsiella pneumoniae [15])?
**A.** 0.563

**Q.** What about the MIC (Staphylococcus aureus [16]) of the same compound?
**A.** 8 µM (≈ 11.2 µg/mL)

**Q.** What about the Activity (Cell membrane [17]) of the same compound?
**A.** Active; More Potent Than Polymyxin B And Vancomycin

**Q.** And the Activity (Cell membrane [18])?
**A.** Active

**Q.** What about the MIC (Acinetobacter baumannii) of the same compound?
**A.** 4 µM (≈ 5.62 µg/mL)

**Q.** What about the MIC (Klebsiella pneumoniae [19]) of the same compound?
**A.** 8 µM (≈ 11.2 µg/mL)

**Q.** What about the Activity (Klebsiella pneumoniae [20]) of the same compound?
**A.** Dose-dependent-effect; Superior Activity Compared To Polymyxin B And Vancomycin

**Q.** What about the Activity (Cell membrane [21]) of the same compound?
**A.** Active

**Q.** What about the MIC (Klebsiella pneumoniae [22]) of the same compound?
**A.** 8 µM (≈ 11.2 µg/mL)

**Q.** And the Activity (Cell membrane [23])?
**A.** Active

**Q.** What about the inhibition (Klebsiella pneumoniae [24]) of the same compound?
**A.** Active

**Q.** And the Activity (Cell membrane [25])?
**A.** Active

**Q.** And the MIC (Bacillus subtilis)?
**A.** 8 µM (≈ 11.2 µg/mL)

**Q.** What about the LD50 at 336 h [26] of the same compound?
**A.** 283 mg/kg

**Q.** And the MIC (Staphylococcus aureus [27])?
**A.** 8 µM (≈ 11.2 µg/mL)

**Q.** And the Activity (Pseudomonas aeruginosa [28])?
**A.** Active

**Q.** And the Activity (Cell membrane [29])?
**A.** Time-dependent-effect; More Potent Than 1% Triton X-100 And Polymyxin B

**Q.** What about the Activity (Cell membrane [30]) of the same compound?
**A.** Active

**Q.** And the MIC (Staphylococcus aureus [31])?
**A.** 8 µM (≈ 11.2 µg/mL)

**Q.** And the Stability (Chymotrypsin)?
**A.** Stable

**Q.** What about the Stability (Trypsin) of the same compound?
**A.** Stable

**Q.** And the Activity (Cell membrane [32])?
**A.** Active

**Q.** And the “fractional inhibitory concentration index (FICI)” value (Klebsiella pneumoniae [33])?
**A.** 0.563

**Q.** What about the inhibition (Staphylococcus aureus [34]) of the same compound?
**A.** Active

**Q.** And the inhibition (Klebsiella pneumoniae [35])?
**A.** Active

**Q.** And the CC50 at 1 h [36]?
**A.** 168 µM

**Q.** And the Activity (Staphylococcus aureus [37])?
**A.** Dose-dependent-effect; Superior Activity Compared To Polymyxin B And Vancomycin

**Q.** And the Activity (Staphylococcus aureus [38])?
**A.** Active

**Q.** And the MIC (Klebsiella pneumoniae [39])?
**A.** 8 µM (≈ 11.2 µg/mL)
